Data: patent publication US20250288570A1, “TREATMENT OF NEUROLOGICAL DISORDERS” (Praxis Precision Medicines, Inc., priority 2022, published 2025)

Tested on: locomotor activity of male CD-1 mice
Experiment: Spontaneous locomotor activity (sLMA) test, Example 8
Assay type: in vivo, mouse
Experimental: The spontaneous locomotor activity (sLMA) test is a validated model for evaluating the potential effects of a compound on motor function. This study evaluated the effect of Compound 1 on locomotor activity of male CD-1 mice. Doses of Compound 1 used were 3 mg/kg, 5.6 mg/kg, 10 mg/kg and 20 mg/kg administered orally (p.o.).
Male CD-1 mice (Vital River, Beijing, China) approximately 6 weeks old were used for the study. Body weights were between 25 g and 35 g at the time of experiment.
Treatment was conducted using Compound 1 and 35% 2-hydroxypropyl-β-cyclodextrin (35% HPBCD, used as a negative control). Compound 1 stock solution was prepared fresh each experiment day in 35% HPBCD and protected from light. The stock solution was diluted with vehicle for lower doses.
The spontaneous locomotor activity (sLMA) test for each study was carried out over three days, with mice from each treatment group tested each day. The treatment groups included mice dosed with vehicle (35% HPBCD) and with Compound 1 at the dose of 3 mg/kg, 5.6 mg/kg, 10 mg/kg and 20 mg/kg. Mice were randomly assigned into one of the treatment groups.
A single dose of Compound 1 (3 mg/kg, 5.6 mg/kg, 10 mg/kg and 20 mg/kg) or vehicle (35% HPBCD) was administered to mice via oral gavage 30 minutes prior to testing. Immediately prior to conducting the sLMA test, a brief neurological assessment was performed. Each animal was visually assessed for sedation and ataxia.
Activity was recorded by overhead cameras and was analyzed offline. Video tracking analysis software was used to determine total distance travelled in millimeters. Distance travelled was also calculated in 5-minute bins.
All statistical analyses were conducted using GraphPad Prism 9.3. Means were combined and standard error was calculated using the Satterthwaite Approximation to combined standard deviations. […] TD50 and TC50 values were calculated from these fit curves.

CCOC(F)(F)c1nnc2ccc(-c3cnc(OCC(F)(F)F)c(F)c3)cn12 [Compound 1]
sedation or ataxia (in words) (3 mg/kg and 5.6 mg/kg): No sedation or ataxia was observed | mice with sedation and/or ataxia (10 mg/kg): five | mice with sedation and/or ataxia (20 mg/kg): eight | sLMA TD50 (p.o., distance travelled): 10.4 mg/kg
